# Reference: US20220152144A1, “FOOD ADDITIVE INCLUDING MANNAN OLIGOSACCHARIDES TO ENHANCE ANIMAL PERFORMANCE AND METHOD OF USING THE SAME” (Vitech Bio-Chem Corporation, priority 2020, published 2022)
# What was measured:
# [1] = Growth performance of broiler chicks fed supplemented diets (Example 1); assay type: in vivo, broiler chicks (Cobb500); conditions: dose 45 ppm
# Description: Materials and Methods. Broiler chicks: A total of 960 1-day old broiler chicks (Name of breed: Cobb500™) (8 trt×6 rep×20 birds/pen) were randomly allocated to 8 treatment groups. Treatment groups: Treatment 1 was a corn/soybean meal diet (PC: 45 ppm avilamycin); Treatment 2 was a PC+50 g/T Fish hydrolysate+MOS (80:20 ratio); Treatment 3 was a PC+100 g/T Fish hydrolysate+MOS (80:20); and treatment 4 was PC+200 g/T Fish hydrolysate+MOS (80:20).
# (§1) The trial was conducted for 42 days. Body weight gain, feed intake, and FCR was measured at 14, 28, and 42 days. Cecal levels of E. coli, Salmonella, and lactobacillus were evaluated at 21 days.
# Measurements: Individual broiler weights and feed intake was collected in order to calculate body weight and body weight gain, feed intake, and gain-to-feed ratio by phase.
# One-way ANOVA and Duncan's multiple range test was used to separate the means. There is no difference found between treatments. The overall mortality during the 42 days period is 3.65% and it is non-treatment specific.
# E. coli = assay: Bacterial counts in cecal samples of broiler chicks: E. coli; assay type: in vivo; conditions: 21 days, dose 45 ppm
# Description: as §1
# Lactobacilli = assay: Bacterial counts in cecal samples of broiler chicks: Lactobacilli; assay type: in vivo; conditions: 21 days, dose 45 ppm
# Description: as §1
structure (smiles),measurement,setting,value
"COC[C@H]1O[C@@H](OC2OC[C@@H]3O[C@]4(O[C@H]3[C@H]2OC(=O)C(C)C)O[C@H](C)[C@@](O)(C(C)=O)[C@@H]2OCO[C@H]24)[C@@H](OC)[C@@H](O)[C@@H]1O[C@@H]1O[C@H](C)[C@H](OC)[C@H](O[C@H]2C[C@@]3(C)OC4(C[C@@H](O)[C@H](O[C@H]5C[C@@H](O)[C@H](OC(=O)c6c(C)c(Cl)c(O)c(Cl)c6OC)[C@@H](C)O5)[C@@H](C)O4)O[C@@H]3[C@@H](C)O2)[C@H]1O (stereo partly shown) [Avilamycin, avilamycin]",body weight (BW),[1]; Day 0-14,442 g
same,body weight gain (BWG),[1]; Day 0-14,402 g
same,feed intake (FI),[1]; Day 0-14,583 g
same,food conversion ratio (FCR),[1]; Day 0-14,1.453
same,body weight (BW),[1]; Day 0-28,"1,550 g"
same,body weight gain (BWG),[1]; Day 0-28,"1,510 g"
same,feed intake (FI),[1]; Day 0-28,"2,212 g"
same,food conversion ratio (FCR),[1]; Day 0-28,1.472
same,body weight (BW),[1]; Day 14-28,"1,550 g"
same,body weight gain (BWG),[1]; Day 14-28,"1,108 g"
same,feed intake (FI),[1]; Day 14-28,"1,628 g"
same,food conversion ratio (FCR),[1]; Day 14-28,1.542
same,body weight (BW),[1]; d 28-42,"2,784 g"
same,body weight gain (BWG),[1]; d 28-42,"1,235 g"
same,feed intake (FI),[1]; d 28-42,"2,601 g"
same,food conversion ratio (FCR),[1]; d 28-42,2.123
same,body weight (BW),[1]; overall 0-42 days,"2,784 g"
same,body weight gain (BWG),[1]; overall 0-42 days,"2,745 g"
same,feed intake (FI),[1]; overall 0-42 days,"4,813 g"
same,food conversion ratio (FCR),[1]; overall 0-42 days,1.753
same,E. coli Counts,E. coli,7.29a Log10 CFU/g
same,Lactobacilli Counts,Lactobacilli,7.21 Log10 CFU/g
